A word on the Ki: it is a dissociation constant, usually derived from enzyme kinetics or from competition with a known ligand.

Data set [1] deals with E. coli DH10B pBCSK(−) producing VIM-2 (228R). The data set can be described thus: MIC by agar dilution, E. coli DH10B producing VIM-2. The format is cell-based. The source says: A forward primer containing the SacI restriction site and a reverse primer with the BamHI restriction site were used to amplify blaVIM-2 including the pET24a(+) ribosomal binding site, using plasmid pET-24a(+)-blaVIM-2 as template. The product was then subcloned into phagemid pBCSK (−) (Agilent (Santa Clara, Calif.)) using the above restriction sites, and thus placing the blaVIM-2 open reading frame under control of the lac promoter, to yield phagemid pBCSK (−) blaVIM-2.
(§1) E. coli DH10B (Invitrogen, Carlsbad, Calif.) was used as a host strain for pBCSK (−) blaVIM-2, and to obtain a mutant library at position 228 by site-saturation mutagenesis, using the QuickChange XL Site-directed Mutagenesis Kit (Stratagene). Briefly, primers that capture all 19 variants at MBL position 228 were designed and PCR mutagenic reactions were conducted using pBCSK (−) blaVIM-2 as a template, and transformed into E. coli DH10B. Single colonies were selected for plasmid purification, and successful mutagenesis was verified by complete DNA sequencing.
(§2) The effect of Zn^2+ availability was also tested by agar dilution using MH supplemented with 250 μM ZnSO4 or 5 μM EDTA. Reported values are the mode of at least 3 biological replicates.
For orientation: Agar dilution tests growth on a series of plates holding different concentrations.

Data set [2] has as its system E. coli DH10B pBCSK(−) producing R228P variant. The data set can be described thus: MIC by agar dilution, E. coli DH10B producing VIM-2 R228P. The format is cell-based. The following applies: Escherichia coli. The procedure:
as §1, §2

Data set [3] concerns E. coli DH10B pBCSK(−) producing R228Y variant. The data set can be described thus: MIC by agar dilution, E. coli DH10B producing VIM-2 R228Y. The following applies: Escherichia coli. It counts as cell-based. The procedure:
as §1, §2

Data set [4] relates to E. coli DH10B pBCSK(−) producing VIM-24 (R228L). Kind of data set: MIC by agar dilution, E. coli DH10B producing VIM-24. It counts as cell-based. The following applies: Escherichia coli. The procedure: as §1, §2
The subject of data set [5] is E. coli DH10B pBCSK(−) producing R228M variant. Kind of data set: MIC by agar dilution, E. coli DH10B producing VIM-2 R228M. It counts as cell-based. The following applies: Escherichia coli. The procedure: as §1, §2
Data set [6] has as its target T1, VIM-2 (Escherichia coli, UniProt Q5U7L7).
T1 construct: expressed in transfected cells; host or cells: E. coli DH10B carrying pBC SK(-) blaVIM-2; periplasmic extract by osmotic shock with chloroform
Kind of data set: Cefepime and ceftazidime hydrolysis in periplasm preparations, VIM-2. The settings on record: 800 μM cefepime or 400 μM ceftazidime, 25° C. It counts as biochemical, P. aeruginosa. The method, then:
(§3) Additionally, cefepime and ceftazidime hydrolysis were measured using periplasm preparations, as previously described. Briefly, periplasmic preparations of E. coli DH10B pBC SK (−) harboring blaVIM-2 or blaVIM-24 were obtained by osmotic shock with chloroform, and MBL production assessed by immunoblotting. Initial velocities of hydrolysis at high substrate concentrations (800 μM for cefepime and 400 μM for ceftazidime) were measured using equal amounts of both β-lactamases in 15 mM HEPES pH 7.5, 200 mM NaCl, supplemented with 50 μM ZnSO4, at 25° C.

Data set [7] relates to E. coli DH10B pBCSK(−) producing R228K variant. Kind of data set: MIC by agar dilution, E. coli DH10B producing VIM-2 R228K. The settings on record: Escherichia coli. The format is cell-based. The procedure:
as §1, §2

Data set [8] relates to E. coli DH10B pBCSK(−) producing R228Q variant. Kind of data set: MIC by agar dilution, E. coli DH10B producing VIM-2 R228Q. It counts as cell-based. The following applies: Escherichia coli. The method, then: as §1, §2
Data set [9] relates to E. coli pBC SK(−). The data set can be described thus: MIC by agar dilution, E. coli DH10B host with empty phagemid. The format is cell-based. The settings on record: Escherichia coli. The method, then:
as §1, §2

Data set [10] has as its target T2, VIM-24 (Escherichia coli, UniProt Q5U7L7, R205L).
T2 construct: which corresponds to cleavage after residues 20 (plus an additional Met residue on the N-terminus); made in house; host or cells: E. coli BL21(DE3) pLys, plasmid pET-24a(+)-blaVIM-24-S21
Kind of data set: Cefepime and ceftazidime hydrolysis in periplasm preparations, VIM-24. The following applies: 800 μM cefepime or 400 μM ceftazidime, 25° C. It counts as biochemical. The procedure: as §3

Data set [11] has as its system MBLs. The data set can be described thus: Assays in solution after prolonged exposure to oxidative conditions. It counts as biochemical. The settings on record: data not shown.
The target in data set [12] is T2, VIM-24. The data set can be described thus: BTZ inhibition kinetics of nitrocefin hydrolysis by VIM-24. It counts as biochemical. The source says: (§4) Analysis of BTZ inhibition kinetics. Models involving one, or two-step slow binding were considered to analyze BTZ inhibition of NFC hydrolysis by VIM-2 and VIM-24 (Scheme 1).
(§5) Here E represents the free enzyme, and I the free inhibitor, EI is the final enzyme-inhibitor complex for a single step slow binding mechanism, and E*I is the enzyme-inhibitor complex formed after conformational changes in a two-step slow binding mechanism. Therefore, the dissociation constant for the EI complex (Ki), also called the inhibitor constant, is defined as Ki=k−1/k1; the dissociation constant for the E*I complex (Ki′) is defined as Ki′=k−2/k2, and the overall dissociation constant for the two-step mechanism (Ki*) is defined as Ki*=Ki/(1+([…])).
(§6) The Ki for each inhibitor was determined by direct competition assays under steady-state conditions. The initial velocity was measured in the presence of a constant concentration of enzyme (3 nM for VIM-2 and 4 nM for VIM-24) with increasing concentrations of inhibitor (5-60 μM) against a fixed concentration (5 x KM) of the indicator substrate, NCF, as previously described (42-44). The reactions were started by addition of VIM-2 or VIM-24 to substrate or to mixtures of substrate and inhibitor. Data were linearized by plotting inverse initial steady-state velocities (1/v0) against inhibitor concentration (I). Ki (observed) was determined by dividing the value for the y intercept by the slope of the line. Ki determinations were corrected to account for the affinity of NCF for the β-lactamase according to equation 3.
(§7) Measurements of association rate constants for inhibitor binding were carried out at 25° C. in 10 mM HEPES at pH 7.5 supplemented with 200 mM NaCl, 50 μM […] and 50 μg/ml BSA, in the presence of several concentrations of each compound. Reactions were then initiated by the addition of β-lactamase (3 nM VIM-2 or 4 nM VIM-24) to a mixture of 50 μM NCF and each BTZ without pre-incubation. Inhibitor association rate constants were estimated from linear extrapolation of the observed rate constant for inhibition (kobs), which was obtained by fitting progress curves of NFC hydrolysis to Eq. 4:
(§8) As previously described, the linear dependence of kobs vs. [I] at limiting I concentration approximates second-order rate constant k2/Ki. The observed second-order rate constant also includes an adjustment for competition between inhibitor and substrate binding (Eq. 5).
(§9) Also, vs calculated from the progress curves of NCF hydrolysis for each concentration of inhibitor were used to determine Ki*, according to the relationship shown in equation 6 (5). The value reported is the mean of three velocities±SD.
(§10) To further test the time-dependent inhibition mechanism of inhibitor binding, assays using dilutions of pre-formed complexes were performed. For these experiments, 1 μM of enzyme was incubated with varying concentrations of the inhibitor which allowed for complete inactivation of the enzyme during the 5 min incubation at 25° C. The reactions were then diluted 2,000-fold in 10 mM HEPES at pH 7.5 supplemented with 200 mM NaCl, 50 μM […] and 50 μg/ml BSA, which contained 50 μM NCF. Reactivation of the enzyme based on NCF hydrolysis was monitored over time. Control reaction with the free enzyme was performed in the same fashion.

For data set [13], the target named is T3, VIM-2 (Pseudomonas aeruginosa, UniProt Q9K2N0).
T3 construct: made in house; host or cells: E. coli BL21(DE3) pLys, plasmid pET-24a(+)-blaVIM-2-S21
Kind of data set: BTZ inhibition kinetics of nitrocefin hydrolysis by VIM-2. The format is biochemical, P. aeruginosa.
Text: as §4, §5, §6, §7, §8, §9, §10

Where [14] appears, read: Escherichia coli, MHA supplemented with 5 μM EDTA, read-out: MIC.
[15] abbreviates: Escherichia coli, MHA supplemented with 250 μM Zn2+, read-out: MIC.
Where [16] appears, read: MHA supplemented with 5 μM EDTA.
The mark [17] stands for this setting: MHA supplemented with 250 μM Zn2+.
The mark [18] stands for this setting: MHA supplemented with 5 μM EDTA, read-out: MIC.
Where [19] appears, read: MHA supplemented with 250 μM Zn2+, read-out: MIC.
Setting [20] is: rate constant for breakdown of E*I.
Where [21] appears, read: rate constant for formation of E*I.

Molecules are shown by their SMILES. In brackets after ≈: the same amount, converted by molar mass. Like-named read-outs stand apart in the source and are kept apart here.

As to `CO/N=C(\C(=O)N[C@@H]1C(=O)N2C(C(=O)[O-])=C(C[N+]3(C)CCCC3)CS[C@H]12)c1csc(N)n1` [Cefepime], the MIC in [1] (Escherichia coli, MHA) was at most 0.5 µg/mL; in data set [1] (setting [14]), 0.5 µg/mL (≈ 1.04 µM); in data set [1] (setting [15]), 0.5 µg/mL (≈ 1.04 µM); in [1] (MHA), 0.5 µg/mL (≈ 1.04 µM); in [2] (MHA) it was 0.25 µg/mL (≈ 0.52 µM); in data set [2] (setting [16]) it was at most 0.25 µg/mL. In addition, the MIC in data set [2] (setting [17]) worked out at 0.5 µg/mL (≈ 1.04 µM); in data set [3] (MHA) it was 8 µg/mL (≈ 16.6 µM); in [3] (setting [16]), 8 µg/mL (≈ 16.6 µM); in [3] (setting [17]) it was 8 µg/mL (≈ 16.6 µM); in [4] (MHA), 4 µg/mL (≈ 8.32 µM); in [4] (setting [18]) it was 4 µg/mL (≈ 8.32 µM). The MIC was 4 µg/mL (≈ 8.32 µM) in [4] (setting [19]); 2 µg/mL (≈ 4.16 µM) in [5] (MHA); 4 µg/mL (≈ 8.32 µM) in data set [5] (setting [16]); 2 µg/mL (≈ 4.16 µM) in [5] (setting [17]); 0.5 µg/mL (≈ 1.04 µM) in data set [7] (MHA); at most 0.25 µg/mL in data set [7] (setting [16]). Besides, the MIC was at most 0.25 µg/mL in data set [7] (setting [17]); 16 µg/mL (≈ 33.3 µM) in [8] (MHA); 16 µg/mL (≈ 33.3 µM) in data set [8] (setting [16]); 32 µg/mL (≈ 66.6 µM) in data set [8] (setting [17]); 0.03 µg/mL (≈ 0.0624 µM) in data set [9] (MHA); at most 0.25 µg/mL in [9] (setting [16]). The same compound returned an MIC in data set [9] (setting [17]) of at most 0.25 µg/mL. The “rate of hydrolysis (initial velocity) in periplasma” value in [6] is 2.9×10^−7 M^s−1; in data set [10], 5.3e-07 M/s.
With `CC(C)(O/N=C(\C(=O)N[C@@H]1C(=O)N2C(C(=O)[O-])=C(C[n+]3ccccc3)CS[C@H]12)c1csc(N)n1)C(=O)O` [Ceftazidime], the MIC is 16 µg/mL (≈ 29.3 µM) in data set [1] (Escherichia coli, MHA); 16 µg/mL (≈ 29.3 µM) in [1] (setting [14]); 32 µg/mL (≈ 58.5 µM) in data set [1] (setting [15]); 1 µg/mL (≈ 1.83 µM) in [2] (MHA); at most 1 µg/mL in data set [2] (setting [16]); 4 µg/mL (≈ 7.32 µM) in data set [2] (setting [17]). The MIC stood at 64 µg/mL (≈ 117 µM) in [3] (MHA); 64 µg/mL (≈ 117 µM) in data set [3] (setting [16]); 128 µg/mL (≈ 234 µM) in [3] (setting [17]); 64 µg/mL (≈ 117 µM) in [4] (MHA); 32 µg/mL (≈ 58.5 µM) in data set [4] (setting [18]); 128 µg/mL (≈ 234 µM) in data set [4] (setting [19]). For the same compound, the MIC in data set [5] (MHA) is 128 µg/mL (≈ 234 µM); in [5] (setting [16]) it was 64 µg/mL (≈ 117 µM); in data set [5] (setting [17]) it was 256 µg/mL (≈ 468 µM); in data set [7] (MHA), 1 µg/mL (≈ 1.83 µM); in data set [7] (setting [16]) it was at most 1 µg/mL; in data set [7] (setting [17]), at most 1 µg/mL. The MIC is 128 µg/mL (≈ 234 µM) in [8] (MHA); 128 µg/mL (≈ 234 µM) in data set [8] (setting [16]); 512 µg/mL (≈ 937 µM) in data set [8] (setting [17]); 0.06 µg/mL (≈ 0.11 µM) in [9] (MHA); at most 1 µg/mL in data set [9] (setting [16]); at most 1 µg/mL in data set [9] (setting [17]). In addition, the “rate of hydrolysis (initial velocity) in periplasma” value in [6] is “measurable rates of hydrolysis were not obtained”; in [10], 4e-07 M/s.
As to `O=C(O)[C@@H]1CS[C@H]2CS[C@H](CS)N21` [L-CS319], in [11], the “inhibitory activity towards MBLs after prolonged exposure to oxidative conditions” value is listed as “abolishes the inhibitory activity”. The figures for the “k−2” value in data set [12] (setting [20]) and in [13] (setting [20]) were 0.001 ± 1 × 10^−3 s^−1 and 0.0003 ± 1 × 10^−4 s^−1, respectively. In addition, the k2 is reported as 0.06 ± 2 × 10^−3 s−1 in data set [12] (setting [21]) and 0.03 ± 1 × 10^−3 s^−1 in [13] (setting [21]). Further, the Ki in [13] (initial complex EI, NCF as reporter substrate) amounted to 3700 ± 300 nM; in [13] (overall dissociation constant of two-step mechanism (E*I)) it was 40 ± 10 nM.

For the origin of these results see US10251869B2, “Compositions and methods of inhibiting metallo-β-lactamases” (priority 2014, dated 2019).
